Key:
[1] = molecular target: T1, monoamine oxidase A (MAO-A) (Homo sapiens, UniProt P21397); experiment: Monoamine oxidase A inhibition (p-tyramine substrate, HRP/vanillic acid readout); format: biochemical; details: mean ± s.e.m., n = 3
T1 sequence (P21397 1-527): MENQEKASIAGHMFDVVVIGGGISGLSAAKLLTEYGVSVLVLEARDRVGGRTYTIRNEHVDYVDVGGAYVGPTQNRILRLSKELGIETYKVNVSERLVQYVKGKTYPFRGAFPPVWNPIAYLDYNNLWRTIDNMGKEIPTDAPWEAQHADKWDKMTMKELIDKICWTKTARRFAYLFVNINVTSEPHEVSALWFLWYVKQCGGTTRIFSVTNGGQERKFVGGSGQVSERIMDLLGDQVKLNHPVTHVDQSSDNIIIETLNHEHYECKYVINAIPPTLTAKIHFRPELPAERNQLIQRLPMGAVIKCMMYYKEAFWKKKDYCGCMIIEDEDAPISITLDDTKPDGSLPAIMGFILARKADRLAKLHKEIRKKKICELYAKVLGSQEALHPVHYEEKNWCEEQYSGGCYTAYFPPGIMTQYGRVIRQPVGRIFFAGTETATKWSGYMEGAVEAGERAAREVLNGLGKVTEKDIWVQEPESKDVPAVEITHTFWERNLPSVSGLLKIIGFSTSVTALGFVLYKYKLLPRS
Experimental: The organic amines p-tyramine or benzylamine were used as substrates for the monoamine oxidase A (MAO-A) and B (MAO-B) enzymes respectively. The H2O2 produced by this reaction was quantified by reaction with vanillic acid, catalysed by horse radish peroxidase (HRP).
The reactions were carried out at 37° C. in polystyrene microtitre plates. The MAO enzymes (final concentration 2 U/ml) were mixed with either p-tyramine (Sigma, final concentration 0.5 mM) or benzylamine (Sigma, final concentration 0.5 mM) as appropriate and the chromogenic solution (containing vanillic acid (Fluka), 4-aminoantipyrine (Fluka) and horse radish peroxidase (Sigma), final concentrations 0.25 mM, 0.125 mM and 1 U/ml, respectively) in 0.2 M potassium phosphate buffer, pH 7.6. After 40 min incubation, plates were analysed in a microtitre plate absorbance reader, e.g. Spectramax M5 (Molecular Devices Corporation), at 495 nm.
The effects of carnosol and rosmanol on the monoamine oxidase enzymes were determined by their inclusion in the assay at a range of concentrations between 0.03 and 100 μM for 10 minutes prior to and during the incubation with substrate. To determine the effect of the compounds on the HRP-catalysed portion of the reaction, the MAO enzyme was replaced by H2O2 (Molecular Probes, final concentration 50 μM). […]

[2] = molecular target: T2, human glycine transporter 1b (GlyT1) (Homo sapiens, UniProt P48067); experiment: Glycine uptake inhibition in CHO cells expressing GlyT1; format: cell-based; details: 60 nM [3H]-glycine
T2 construct: expressed in transfected cells; host or cells: CHO
T2 sequence (P48067 1-652 isoform P48067-3): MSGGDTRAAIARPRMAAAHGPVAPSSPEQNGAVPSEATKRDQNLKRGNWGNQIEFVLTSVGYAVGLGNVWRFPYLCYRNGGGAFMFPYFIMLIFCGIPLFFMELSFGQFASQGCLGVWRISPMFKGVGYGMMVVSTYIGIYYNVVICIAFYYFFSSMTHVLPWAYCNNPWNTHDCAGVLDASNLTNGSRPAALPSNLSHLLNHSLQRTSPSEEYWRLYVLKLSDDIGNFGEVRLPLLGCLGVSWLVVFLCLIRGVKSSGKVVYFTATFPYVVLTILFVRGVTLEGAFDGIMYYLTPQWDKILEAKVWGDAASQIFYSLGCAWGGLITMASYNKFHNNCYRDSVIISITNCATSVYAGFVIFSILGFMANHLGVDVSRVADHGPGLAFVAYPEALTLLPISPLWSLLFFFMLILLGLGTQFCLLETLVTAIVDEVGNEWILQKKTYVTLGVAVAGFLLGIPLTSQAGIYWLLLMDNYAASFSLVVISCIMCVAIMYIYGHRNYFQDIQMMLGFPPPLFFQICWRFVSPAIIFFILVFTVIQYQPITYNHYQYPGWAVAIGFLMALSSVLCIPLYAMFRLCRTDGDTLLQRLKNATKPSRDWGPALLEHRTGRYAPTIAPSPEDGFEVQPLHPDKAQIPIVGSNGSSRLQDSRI
Experimental: CHO cells stably expressing the human glycine transporter 1b cDNA (GlyT1) were routinely grown in Dulbecco's Modified Eagle's Medium (Invitrogen, Carlsbad, USA) containing 10% dialysed foetal calf serum, penicillin, streptomycin, proline and the antibiotic G418. Cells were harvested by trypsinisation one day prior to the assay and were seeded in the above mentioned medium. Immediately prior to the assay, the medium was replaced by uptake buffer containing 150 mM NaCl, 1 mM CaCl2, 2.5 mM KCl, 2.5 mM MgCl2, 10 mM Glucose and 10 mM N-2-hydroxyethylpiperazine-N′-2-ethanesulfonic acid (HEPES buffer).
Glycine uptake into the cells was determined by addition of 60 nM radiolabelled [^3H]-glycine (Amersham Biosciences GE Healthcare, Slough, UK) and incubation for 30 minutes at room temperature. Following removal of unincorporated label by gentle washing three times with the above buffer, incorporated glycine was quantified by liquid scintillation counting.

[3] = molecular target: human recombinant acetylcholinesterase (Homo sapiens, UniProt P22303); experiment: Acetylcholinesterase inhibition (Ellman method); format: biochemical; details: substrate AMTCh 50 μM, read-out: percentage inhibition of acetylcholinesterase activity
Sequence of human recombinant acetylcholinesterase (P22303 32-614): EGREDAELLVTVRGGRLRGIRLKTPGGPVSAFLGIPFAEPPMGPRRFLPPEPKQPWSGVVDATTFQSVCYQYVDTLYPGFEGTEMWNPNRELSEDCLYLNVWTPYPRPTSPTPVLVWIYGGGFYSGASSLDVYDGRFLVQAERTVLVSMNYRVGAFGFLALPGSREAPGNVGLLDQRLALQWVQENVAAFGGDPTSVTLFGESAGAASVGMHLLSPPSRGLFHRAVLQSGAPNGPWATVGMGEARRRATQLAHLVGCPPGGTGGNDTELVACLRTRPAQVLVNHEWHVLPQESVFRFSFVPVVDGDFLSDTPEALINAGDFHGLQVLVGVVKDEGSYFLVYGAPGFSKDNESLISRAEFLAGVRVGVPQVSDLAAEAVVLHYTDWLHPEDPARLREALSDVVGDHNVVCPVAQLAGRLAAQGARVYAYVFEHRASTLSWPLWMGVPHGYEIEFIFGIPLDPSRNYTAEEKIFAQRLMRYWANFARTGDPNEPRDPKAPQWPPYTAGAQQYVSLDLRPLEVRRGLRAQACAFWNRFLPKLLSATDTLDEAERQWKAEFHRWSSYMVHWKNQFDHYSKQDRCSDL
Experimental: The effect of carnosol on human recombinant acetylcholinesterase activity was quantified by measuring the formation of 5-thio-2-nitrobenzoic acid from acetyl-6-methylthiocholine (AMTCh), as adapted from Ellman et al. (1961, Biochem. Pharmacol., 7: 88-90). Briefly, carnosol (10 μM), reference compound or water (control) were added to a buffer containing 200 mM NaH2PO4/Na2HPO4 (pH 8.0), 5 mg/ml (NH4)2SO4, 0.4 mM DTNB and 5 mU enzyme. The enzymatic reaction was then initiated by the addition of the substrate AMTCh at 50 μM. The absorbance was measured immediately (t=0) at λ=405 nm using a microplate reader (MRX, Dynatech or Ultra, Tecan). This measurement was used to detect any compound interference with the spectrophotometric detection at this wavelength. After 30 min incubation at 37° C. (t=30), a second measurement of the absorbance was made at λ=405 nm. The enzyme activity was determined by subtracting the signal measured at t=0 from that measured at t=30. The results are expressed as percentage inhibition of the control enzyme activity. The standard inhibitory reference compound used was neostigmine, tested in each experiment at several concentrations to obtain an inhibition curve from which its IC50 value was calculated.

SMILES | IC50 [1] [µM] | IC50 for tritiated glycine uptake (result in words) [2] | inhibition at 10 µM [3] [%] | IC50 ([2]; read-out: IC50 for tritiated glycine uptake) [µM]
CC(C)c1cc2c(c(O)c1O)[C@@]13CCCC(C)(C)[C@@H]1[C@H](OC3=O)[C@H]2O [Rosmanol, rosmanol] | 3.02 ± 0.48 | inactive | – | –
CC(C)c1cc2c(c(O)c1O)[C@@]13CCCC(C)(C)[C@@H]1C[C@@H]2OC3=O [Carnosol, carnosol] | 4 ± 0.1 | – | 53 | 29.3

Reference: patent publication US8227508B2, “Dietary and pharmaceutical compositions containing carnosol and/or rosmanol and their uses” (DSM IP Assets B.V., priority 2006, dated 2012)
